From US12180207B2 (ARRAY BIOPHARMA INC., priority 2018, dated 2024) come the findings set out here.

Usually IC50 stands for the midpoint of a concentration-inhibition curve.

Assay [1] has as its target phosphorylated FGFR3 (SEQ ID NO: 5, amino acids 449 to 759) (Homo sapiens (Human), UniProt P22607). The experiment in a line: FGFR enzyme binding assay (HTRF tracer displacement), FGFR3. The settings on record: 5 nM phosphorylated FGFR3, average of multiple determinations if made. The procedure, abridged: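 Kinase and tracer were incubated with compound for 60 minutes at 22° C. Tracer displacement was then measured by HTRF, and results were expressed as POC with 1 μM control inhibitor defining full displacement.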
Background: In TR-FRET formats the signal depends on donor and acceptor labels being close together.

For assay [2], the target named is FGFR3 (SEQ ID NO: 5, amino acids 449-759) (Homo sapiens (Human), UniProt P22607). The experiment in a line: LC/MS FGFR3 kobs assay (covalent protein modification). Format: binding. The settings on record: 500 nM FGFR3, 3 μM compound. The procedure, abridged:
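Samples are acid-quenched at set times and read by Q-TOF mass spectrometry. kobs is obtained by fitting DMSO-normalized percent unmodified protein to an exponential decay model.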

Assay [3] concerns the target recombinant human FGFR1 catalytic domain (amino acids 308-731) (Homo sapiens (Human), UniProt P11362). Description: FGFR1 enzyme activity assay (LanthaScreen TR-FRET). The conditions noted are these: 20 min incubation at 22° C., average of multiple determinations if made, read-out: FGFR1 Enz FRET IC50. In kind it is biochemical. An outline of the steps: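 His-tagged FGFR1 kinase domain with 100 nM Alexa Fluor 647-poly-GT peptide and ATP in pH 7.5 HEPES/MgCl2 buffer with 2% DMSO, 20 min at 22 °C. Quenched with EDTA plus 2 nM Eu-PY20 antibody and read after 60 min. IC50 comes from a 4-parameter fit of percent of control.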

In assay [4] the target is recombinant human FGFR3 (amino acids R397-T806) (Homo sapiens (Human), UniProt P22607). The experiment in a line: FGFR3 enzyme activity assay (LanthaScreen TR-FRET). In kind it is biochemical. The settings on record: 25 μM ATP, 10 min incubation at 22° C., average of multiple determinations if made, read-out: FGFR3 Enz FRET IC50. The procedure, abridged: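 GST-HIS6-tagged human FGFR3 (R397-T806) was reacted with 100 nM Alexa Fluor 647-Poly-GT substrate and 25 μM ATP plus compound in HEPES/MgCl2/Triton buffer, pH 7.5, 2% DMSO, for 10 min at 22 °C.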
Sequence of recombinant human FGFR3 (amino acids R397-T806) (P22607 397-806): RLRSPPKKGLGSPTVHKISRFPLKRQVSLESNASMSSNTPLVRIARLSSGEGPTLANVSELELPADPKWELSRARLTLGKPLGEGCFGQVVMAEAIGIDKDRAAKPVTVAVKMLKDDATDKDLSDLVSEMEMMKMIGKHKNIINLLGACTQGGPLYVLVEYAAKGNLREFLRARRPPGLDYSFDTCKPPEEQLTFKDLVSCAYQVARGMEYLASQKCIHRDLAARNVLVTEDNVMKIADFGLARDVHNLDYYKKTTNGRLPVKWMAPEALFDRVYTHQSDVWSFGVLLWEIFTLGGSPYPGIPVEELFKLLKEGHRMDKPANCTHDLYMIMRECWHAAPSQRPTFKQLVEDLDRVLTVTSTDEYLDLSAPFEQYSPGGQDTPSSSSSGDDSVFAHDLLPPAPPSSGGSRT

Sequence of FGFR3 (SEQ ID NO: 5, amino acids 449-759) (P22607 449-759): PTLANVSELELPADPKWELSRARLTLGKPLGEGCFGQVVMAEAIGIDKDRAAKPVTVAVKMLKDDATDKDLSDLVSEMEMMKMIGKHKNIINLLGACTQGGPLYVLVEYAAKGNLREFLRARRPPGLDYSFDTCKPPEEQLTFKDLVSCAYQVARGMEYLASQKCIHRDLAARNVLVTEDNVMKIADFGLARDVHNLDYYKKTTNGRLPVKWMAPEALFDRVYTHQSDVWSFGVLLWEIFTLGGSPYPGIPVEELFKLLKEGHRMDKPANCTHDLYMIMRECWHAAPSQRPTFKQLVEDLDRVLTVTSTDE
Sequence of phosphorylated FGFR3 (SEQ ID NO: 5, amino acids 449 to 759) (P22607 449-759): as above
Sequence of recombinant human FGFR1 catalytic domain (amino acids 308-731) (P11362 other isoform, or with tags, fused parts or gaps): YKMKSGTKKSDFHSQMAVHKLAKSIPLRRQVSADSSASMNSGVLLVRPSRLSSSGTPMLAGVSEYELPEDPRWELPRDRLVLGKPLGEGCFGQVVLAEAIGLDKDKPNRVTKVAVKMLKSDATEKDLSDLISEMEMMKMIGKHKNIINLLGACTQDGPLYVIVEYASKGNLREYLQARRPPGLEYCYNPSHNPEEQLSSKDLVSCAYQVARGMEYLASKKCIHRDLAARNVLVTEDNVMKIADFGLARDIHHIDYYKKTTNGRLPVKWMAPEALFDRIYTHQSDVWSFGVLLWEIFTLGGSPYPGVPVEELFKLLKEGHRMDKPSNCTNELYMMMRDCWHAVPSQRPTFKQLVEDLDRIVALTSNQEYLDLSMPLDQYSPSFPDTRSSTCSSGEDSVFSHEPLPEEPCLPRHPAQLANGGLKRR

As for `C=CC(=O)N1CC(C(=O)N2CCC(n3cc(-c4cc(OCC(C)C)c5c(C#N)cnn5c4)cn3)CC2)C1` [Example 128, 6-(1-(1-(1-acryloylazetidine-3-carbonyl)piperidin-4-yl)-1H-pyrazol-4-yl)-4-isobutoxypyrazolo[1,5-a]pyridine-3-carbonitrile], the IC50 in assay [1] worked out at 6 nM; in assay [3], 7 nM; in assay [4], 3 nM. Further, the “FGFR3 Enz kobs” value in assay [2] turned out to be 0.01702 min⁻¹.
Consider `C=CC(=O)N1CC(CN2CCC(n3cc(-c4cc(OC)c5c(C#N)cnn5c4)cn3)CC2)C1` [Example 132, 6-(1-(1-((1-acryloylazetidin-3-yl)methyl)piperidin-4-yl)-1H-pyrazol-4-yl)-4-methoxypyrazolo[1,5-a]pyridine-3-carbonitrile], for which the IC50 was determined as 7 nM in assay [1], 14 nM in assay [3] and 8 nM in assay [4]. Moreover, in assay [2], the “FGFR3 Enz kobs” value was determined as 0.013 min⁻¹.
Turning to `C=CC(=O)N1CC(C(=O)N2CCC(n3cc(-c4cc(OCC)c5c(C#N)cnn5c4)cn3)CC2)C1` [Example 126, 6-(1-(1-(1-acryloylazetidine-3-carbonyl)piperidin-4-yl)-1H-pyrazol-4-yl)-4-ethoxypyrazolo[1,5-a]pyridine-3-carbonitrile], the IC50 in assay [1] was determined as 11 nM; in assay [3] it was 13 nM; in assay [4], 5 nM. In addition, the “FGFR3 Enz kobs” value in assay [2] is 0.01992 min⁻¹.
On to `COc1cc(-c2cnn(C3CCN(C(=O)C4(C)CN(C(=O)/C=C/CN(C)C)C4)CC3)c2C)cn2ncc(C#N)c12` [Example 157, (E)-6-(1-(1-(1-(4-(dimethylamino)but-2-enoyl)-3-methylazetidine-3-carbonyl)piperidin-4-yl)-5-methyl-1H-pyrazol-4-yl)-4-methoxypyrazolo [1,5-a]pyridine-3-carbonitrile], for which the values for the IC50 in assay [1], in assay [3] and in assay [4] were 6 nM, 90 nM and 18 nM, respectively. Besides, the “FGFR3 Enz kobs” value in assay [2] came to 0.03267 min⁻¹.
For the compound `COc1cc(-c2cnn(C3CCN(CC4(OC)CN(C(=O)/C=C/CN(C)C)C4)CC3)c2C)cn2ncc(Cl)c12` [Example 173, (E)-1-(3-((4-(4-(3-chloro-4-methoxypyrazolo [1,5-a]pyridin-6-yl)-5-methyl-1H-pyrazol-1-yl)piperidin-1-yl)methyl)-3-methoxyazetidin-1-yl)-4-(dimethylamino)but-2-en-1-one], the IC50 is 7 nM in assay [1], 281 nM in assay [3] and 41 nM in assay [4]. Moreover, the “FGFR3 Enz kobs” value in assay [2] came out at 0.06559 min⁻¹.
Regarding `C=CC(=O)N1CC(CN2CCC(n3ncc(-c4cc(OC)c5c(Cl)cnn5c4)c3C)CC2)C1(C)C` (centres unmarked) [Example 120, 1-(3-((4-(4-(3-chloro-4-methoxypyrazolo[1,5-a]pyridin-6-yl)-5-methyl-1H-pyrazol-1-yl)piperidin-1-yl)methyl)-2,2-dimethylazetidin-1-yl)prop-2-en-1-one], the figures for the IC50 in assay [1], in assay [3] and in assay [4] were 33 nM, 338 nM and 72 nM, respectively. In assay [2], the “FGFR3 Enz kobs” value was 0.00758 min⁻¹.
For `C=CC(=O)N1CC(CN2CCC(n3ncc(-c4cc(OC)c5c(C#N)cnn5c4)c3C)CC2)C1(C)C` (centres unmarked) [Example 151, 6-(1-(1-((1-acryloyl-2,2-dimethylazetidin-3-yl)methyl)piperidin-4-yl)-5-methyl-1H-pyrazol-4-yl)-4-methoxypyrazolo [1,5-a]pyridine-3-carbonitrile] the same measures were 11 nM, 86 nM, 17 nM and 0.0082 min⁻¹.
With `COc1cc(-c2cnn(C3CN(C(=O)C4(F)CN(C(=O)/C=C/CN(C)C)C4)C3)c2C)cn2ncc(C#N)c12` [Example 160, (E)-6-(1-(1-(1-(4-(dimethylamino)but-2-enoyl)-3-fluoroazetidine-3-carbonyl)azetidin-3-yl)-5-methyl-1H-pyrazol-4-yl)-4-methoxypyrazolo [1,5-a]pyridine-3-carbonitrile], the IC50 is 16 nM in assay [1], 248 nM in assay [3] and 34 nM in assay [4]. For the same compound, in assay [2], the “FGFR3 Enz kobs” value is 0.08254 min⁻¹.
Take `COc1cc(-c2cnn(C3CCN(C(=O)C4CN(C(=O)/C=C/CBr)C4)CC3)c2)cn2ncc(C#N)c12` [Example 180, (E)-6-(1-(1-(1-(4-bromobut-2-enoyl)azetidine-3-carbonyl)piperidin-4-yl)-1H-pyrazol-4-yl)-4-methoxypyrazolo[1,5-a]pyridine-3-carbonitrile]: the results for the IC50 in assay [1], in assay [3] and in assay [4] were 2 nM, 19 nM and 6 nM, respectively. In addition, in assay [2], the “FGFR3 Enz kobs” value turned out to be 0.1329 min⁻¹.
For `C=CC(=O)N1CC(C(=O)N2CCN(c3ncc(-c4cc(OC)c5c(C#N)cnn5c4)cc3C)CC2)C1` [Example 113, 6-(6-(4-(1-acryloylazetidine-3-carbonyl)piperazin-1-yl)-5-methylpyridin-3-yl)-4-methoxypyrazolo[1,5-a]pyridine-3-carbonitrile] the same measures were 45 nM, 107 nM, 105 nM and 0.02175 min⁻¹.
`C=CC(=O)N1CC(C(=O)N2CCC(n3cc(-c4cc(-c5ccccc5F)c5c(C#N)cnn5c4)cn3)CC2)C1` [Example 131, 6-(1-(1-(1-acryloylazetidine-3-carbonyl)piperidin-4-yl)-1H-pyrazol-4-yl)-4-(2-fluorophenyl)pyrazolo[1,5-a]pyridine-3-carbonitrile]: the IC50 in assay [1] stood at 1 nM; in assay [3] it was 9 nM; in assay [4], 4 nM. Moreover, the “FGFR3 Enz kobs” value in assay [2] turned out to be 0.01762 min⁻¹.
Turning to `C=CC(=O)N1CC2(CCN(C(=O)N3CCC(n4cc(-c5cc(OC)c6c(C#N)cnn6c5)cn4)CC3)C2)C1` [Example 8, 6-(1-(1-(2-acryloyl-2,6-diazaspiro[3.4]octane-6-carbonyl)piperidin-4-yl)-1H-pyrazol-4-yl)-4-methoxypyrazolo[1,5-a]pyridine-3-carbonitrile], the IC50 turned out to be 8 nM in assay [1], 18 nM in assay [3] and 3 nM in assay [4]. Besides, the “FGFR3 Enz kobs” value in assay [2] stood at 0.01122 min⁻¹.
In the case of `COc1cc(-c2cnn(C3CCN(CC4CN(C(=O)/C=C/CN5CCCCC5)C4)CC3)c2)cn2ncc(C#N)c12` [Example 175, (E)-4-methoxy-6-(1-(1-((1-(4-(piperidin-1-yl)but-2-enoyl)azetidin-3-yl)methyl)piperidin-4-yl)-1H-pyrazol-4-yl)pyrazolo[1,5-a]pyridine-3-carbonitrile], the IC50 is 8 nM in assay [1], 4 nM in assay [3] and 5 nM in assay [4]. Further, the “FGFR3 Enz kobs” value in assay [2] came out at 0.01233 min⁻¹.
On to `C=CC(=O)N1C[C@H]2CN(C(=O)N3CCC(n4cc(-c5cc(OC)c6c(C#N)cnn6c5)cn4)CC3)C[C@H]21` [Example 7, 6-(1-(1-((1S,5S)-6-acryloyl-3,6-diazabicyclo[3.2.0]heptane-3-carbonyl)piperidin-4-yl)-1H-pyrazol-4-yl)-4-methoxypyrazolo[1,5-a]pyridine-3-carbonitrile], for which the half-inhibitory concentration (IC50) in assay [1] turned out to be 9 nM; in assay [3], 18 nM; in assay [4] it was 2 nM. In addition, the “FGFR3 Enz kobs” value in assay [2] is 0.00305 min⁻¹.
Turning to `C=CC(=O)N1CC(S(=O)(=O)N2CCC(n3cc(-c4cc(OC)c5c(C#N)cnn5c4)cn3)CC2)C1` [Example 134, 6-(1-(1-((1-acryloylazetidin-3-yl)sulfonyl)piperidin-4-yl)-1H-pyrazol-4-yl)-4-methoxypyrazolo[1,5-a]pyridine-3-carbonitrile], the results for the IC50 in assay [1], in assay [3] and in assay [4] were 2 nM, 5 nM and 6 nM, respectively. Besides, the “FGFR3 Enz kobs” value in assay [2] amounted to 0.02537 min⁻¹.
As for `COc1cc(-c2cnn(C3CCN(C(=O)C4CN(C(=O)/C=C/CO)C4)CC3)c2)cn2ncc(C#N)c12` [Example 141, (E)-6-(1-(1-(1-(4-hydroxybut-2-enoyl)azetidine-3-carbonyl)piperidin-4-yl)-1H-pyrazol-4-yl)-4-methoxypyrazolo [1,5-a]pyridine-3-carbonitrile], the IC50 in assay [1] was determined as 6 nM; in assay [3], 43 nM; in assay [4], 6 nM. In addition, in assay [2], the “FGFR3 Enz kobs” value is 0.00171 min⁻¹.
`C=CC(=O)N1CC(C(=O)N2CCC(n3cc(-c4cc(OC(C)C)c5c(C#N)cnn5c4)cn3)CC2)C1` [Example 127, 6-(1-(1-(1-acryloylazetidine-3-carbonyl)piperidin-4-yl)-1H-pyrazol-4-yl)-4-isopropoxypyrazolo[1,5-a]pyridine-3-carbonitrile]: the concentration for half-maximal inhibition (IC50) in assay [1] worked out at 10 nM; in assay [3], 7 nM; in assay [4], 3 nM. For the same compound, the “FGFR3 Enz kobs” value in assay [2] was found to be 0.01654 min⁻¹.
